According to US11795190B2, “D-glycero-B-D-heptose 1-phosphate (HMP) conjugates and use for targeted immune modulation” (NATIONAL RESEARCH COUNCIL OF CANADA, priority 2017, dated 2023):

Tested on: HEK 293T cells encoding an NF-κB-driven luciferase reporter gene
Experiment: NF-κB-driven luciferase reporter assay in HEK 293T cells
Format: cell-based, human
Conditions: FIG. 12; HEK 293T; 10, 30 or 50 μg/mL, digitonin 20 min, luciferase after 6 hours
Protocol: FIGS. 10A-B. Effect of chemically synthesised analogues on human embryonic kidney cells (HEK 293T) encoding an NF-κB-driven luciferase reporter gene. NF-κB luciferase activity was measured in wild type (WT) or TIFA knockout (TIFA KO) cells treated with compounds in the presence of digitonin for 20 min, washed, and then cultured in normal medium without the synthetic compounds for 6 hrs after treatment, before luciferase activity was measured. (A) Cells were treated with 10 μg/mL of the indicated compound. Data are means±standard error mean of technical triplicates. (B) Cells were treated with two different molar concentrations of compound (30 μM or 150 μM). Two batches of DD-β-HBP and DD-β-HMP synthesized independently of one another were tested (batch #1 and batch #2) to assess consistency of the chemical synthesis. Data are means±standard error mean of technical triplicates and are representative of three independent experiments. JS-12: D-glycero-D-manno-heptose; JS-2: D-glycero-D-manno-heptose 7-phosphate; JS-7:D-glycero-β-D-manno-heptose-phosphate; JS-8: D-glycero-α-D-manno-heptose-phosphate; JS-9: β-D-mannose phosphate; JS-6:D-glycero-β-D-manno heptose 1,7-biphosphate; JS-5: D-glycero-α-D-manno heptose 1,7-biphosphate.
FIG. 12. Effects of compounds/products according to the invention on HEK 293T cells encoding an NF-κB-driven luciferase reporter gene. HEK 293T cells were transfected with a plasmid encoding an NF-κB-driven luciferase reporter. After 24 hours, cells were stimulated for 20 minutes in permeabilization buffer (5 μg/mL digitonin) in the presence of water or 10 μg/mL, 30 μg/mL, or 50 μg/mL of indicated synthetic compounds according to the invention. Treatment was removed; cells were washed and incubated for 6 hours incomplete medium. A luciferase assay was then performed. JS-12a control: D-glycero-D-manno heptose. The results are the means±standard error of the mean of three technical replicates. JS-10: 7-O-(Aminoethyl)-D-glycero-β-D-manno-heptopyranose phosphate; JS-11: 7-O-(Aminoethyl)-D-glycero-D-manno-heptopyranose; JS-12: D-glycero-D-manno-heptose; Js-13: pH-Rhodo-7-O-(aminoethyl)-D-glycero-β-D-manno-heptopyranose phosphate.
FIG. 14. Effects of compounds/products according to the invention on HEK 293T cells encoding an NF-κB-driven luciferase reporter gene. HEK 293T cells were transfected with a plasmid encoding an NF-κB-driven luciferase reporter. After 24 hours, cells were stimulated for 20 minutes in permeabilization buffer (5 μg/mL digitonin) in the presence of water, or either 30 μM or 150 μM of indicated synthetic compounds according to the invention. Treatment was removed; cells were washed and incubated for 6 hours in complete medium. A luciferase assay was then performed. […]

NCCOC[C@@H](O)C1O[C@@H](OP(=O)([O-])[O-])C(O)[C@@H](O)[C@@H]1O.[Na+].[Na+] (stereo partly drawn) [JS-10a, 7-O-(Aminoethyl)-D-glycero-β-D-manno-heptopyranose phosphate]
inflammatory response (NF-κB luciferase): modest inflammatory response
